In ChEMBL document CHEMBL3046389, “Synthesis and biological evaluation of novel hydroquinone dimethyl ethers as potential anticancer and antimicrobial agents” (2013):
Converted amounts (≈) assume the structure as drawn.

Key:
Assay type in all cases: functional
[1] = tested on: RPMI-8226; assay: Anticancer activity against Homo sapiens (human) RPMI8226 cells after 48 hr by SRB assay; details: RPMI-8226, 48 h; for CC50: read-out: LC50 (the source's name)
[2] = tested on: SF-268; assay: Anticancer activity against Homo sapiens (human) SF268 cells after 48 hr by SRB assay; details: SF-268, 48 h; for CC50: read-out: LC50 (the source's name)
[3] = tested on: COLO 205; assay: Anticancer activity against Homo sapiens (human) COLO205 cells after 48 hr by SRB assay; details: COLO 205, 48 h; for CC50: read-out: LC50 (the source's name)
[4] = tested on: MDA-MB-468; assay: Anticancer activity against Homo sapiens (human) MDA-MB-468 cells after 48 hr by SRB assay; details: MDA-MB-468, 48 h; for CC50: read-out: LC50 (the source's name)
[5] = tested on: OVCAR-3; assay: Anticancer activity against Homo sapiens (human) OVCAR3 cells after 48 hr by SRB assay; details: OVCAR-3, 48 h
[6] = tested on: SN12C; assay: Growth inhibition of Homo sapiens (human) SN12C cells at 10 uM after 48 hr by SRB assay; details: read-out: GI
[7] = tested on: HL-60(TB); assay: Anticancer activity against Homo sapiens (human) HL-60(TB) cells after 48 hr by SRB assay; details: HL-60, 48 h; for CC50: read-out: LC50 (the source's name)
[8] = tested on: Pseudomonas aeruginosa; assay: Antimicrobial activity against Pseudomonas aeruginosa ATCC 10145 after 48 hr by two-fold serial broth dilution method; details: ATCC 10145, 48 h
[9] = tested on: A549; assay: Growth inhibition of Homo sapiens (human) A549/ATCC cells at 10 uM after 48 hr by SRB assay; details: A549, 48 h, read-out: GI
[10] = tested on: Hs-578T; assay: Anticancer activity against Homo sapiens (human) Hs 578T cells after 48 hr by SRB assay; details: for CC50: read-out: LC50 (the source's name)
[11] = tested on: RXF 393; assay: Growth inhibition of Homo sapiens (human) RXF393 cells at 10 uM after 48 hr by SRB assay; details: RXF 393, 48 h, read-out: GI
[12] = tested on: TK-10; assay: Anticancer activity against Homo sapiens (human) TK10 cells after 48 hr by SRB assay; details: TK-10, 48 h; for CC50: read-out: LC50 (the source's name)
[13] = tested on: SF-295; assay: Growth inhibition of Homo sapiens (human) SF295 cells at 10 uM after 48 hr by SRB assay; details: SF-295, 48 h, read-out: GI
[14] = tested on: U-251; assay: Anticancer activity against Homo sapiens (human) U251 cells after 48 hr by SRB assay; details: U-251, 48 h; for CC50: read-out: LC50 (the source's name)
[15] = tested on: IGROV-1; assay: Anticancer activity against Homo sapiens (human) IGROV1 cells after 48 hr by SRB assay; details: IGROV-1, 48 h
[16] = tested on: Bacillus subtilis; assay: Antimicrobial activity against Bacillus subtilis ATCC 6633 after 48 hr by two-fold serial broth dilution method; details: ATCC 6633, 48 h
[17] = tested on: ACHN; assay: Growth inhibition of Homo sapiens (human) ACHN cells at 10 uM after 48 hr by SRB assay; details: read-out: GI
[18] = tested on: K562; assay: Anticancer activity against Homo sapiens (human) K562 cells after 48 hr by SRB assay; details: K562, 48 h; for CC50: read-out: LC50 (the source's name)
[19] = tested on: SNB-75; assay: Anticancer activity against Homo sapiens (human) SNB75 cells after 48 hr by SRB assay; details: SNB-75, 48 h; for CC50: read-out: LC50 (the source's name)
[20] = tested on: NCI-H460; assay: Growth inhibition of Homo sapiens (human) NCI-H460 cells at 10 uM after 48 hr by SRB assay; details: NCI-H460, 48 h, read-out: GI
[21] = tested on: SW-620; assay: Growth inhibition of Homo sapiens (human) SW620 cells at 10 uM after 48 hr by SRB assay; details: SW-620, 48 h, read-out: GI
[22] = tested on: RXF 393; assay: Anticancer activity against Homo sapiens (human) RXF393 cells after 48 hr by SRB assay; details: RXF 393, 48 h
[23] = tested on: OVCAR-3; assay: Growth inhibition of Homo sapiens (human) OVCAR3 cells at 10 uM after 48 hr by SRB assay; details: OVCAR-3, 48 h, read-out: GI
[24] = tested on: CCRF-CEM; assay: Anticancer activity against Homo sapiens (human) CCRF-CEM cells after 48 hr by SRB assay; details: for CC50: read-out: LC50 (the source's name)
[25] = tested on: DU-145; assay: Anticancer activity against Homo sapiens (human) DU145 cells after 48 hr by SRB assay; details: DU-145, 48 h
[26] = tested on: SF-539; assay: Anticancer activity against Homo sapiens (human) SF539 cells after 48 hr by SRB assay; details: SF-539, 48 h; for CC50: read-out: LC50 (the source's name)
[27] = tested on: Escherichia coli; assay: Antimicrobial activity against Escherichia coli ATCC 11775 after 48 hr by two-fold serial broth dilution method; details: ATCC 11775, 48 h
[28] = tested on: KM12; assay: Growth inhibition of Homo sapiens (human) KM12 cells at 10 uM after 48 hr by SRB assay; details: KM12, 48 h, read-out: GI
[29] = tested on: CCRF-CEM; assay: Growth inhibition of Homo sapiens (human) CCRF-CEM cells at 10 uM after 48 hr by SRB assay; details: read-out: GI
[30] = tested on: MCF7; assay: Growth inhibition of Homo sapiens (human) MCF7 cells at 10 uM after 48 hr by SRB assay; details: MCF7, 48 h, read-out: GI
[31] = tested on: M14; assay: Growth inhibition of Homo sapiens (human) M14 cells at 10 uM after 48 hr by SRB assay; details: M14, 48 h, read-out: GI
[32] = tested on: MDA-MB-435; assay: Growth inhibition of Homo sapiens (human) MDA-MB-435 cells at 10 uM after 48 hr by SRB assay; details: MDA-MB-435, 48 h, read-out: GI
[33] = tested on: PC-3; assay: Growth inhibition of Homo sapiens (human) PC3 cells at 10 uM after 48 hr by SRB assay; details: PC-3, 48 h, read-out: GI
[34] = tested on: HT-29; assay: Growth inhibition of Homo sapiens (human) HT-29 cells at 10 uM after 48 hr by SRB assay; details: HT-29, 48 h, read-out: GI

COc1ccc(OC)c(/C=C/c2nnc(Nc3ccc(Cl)cc3)o2)c1
GI50 [1]: > 100 µM
TGI [1]: > 100 µM
CC50 [1]: > 100 µM
GI50 [2]: 7.6 µM
TGI [2]: 37.9 µM
CC50 [2]: > 100 µM
GI50 [3]: 16.6 µM
TGI [3]: > 100 µM
CC50 [3]: > 100 µM
GI50 [4]: 16.4 µM
TGI [4]: > 100 µM
CC50 [4]: > 100 µM
GI50 [5]: 3.55 µM
LC50 [5]: > 100 µM
TGI [5]: 15.9 µM
inhibition of growth at 10 µM [6]: 55.1%
GI50 [7]: > 100 µM
TGI [7]: > 100 µM
CC50 [7]: > 100 µM
MBC [8]: 100 µg/mL (≈ 279 µM)
MIC [8]: 100 µg/mL (≈ 279 µM)
inhibition of growth at 10 µM [9]: 59.8%
GI50 [10]: 2.71 µM
TGI [10]: 8.01 µM
CC50 [10]: > 100 µM
inhibition of growth at 10 µM [11]: 43.7%
GI50 [12]: 7.4 µM
TGI [12]: 83.2 µM
CC50 [12]: > 100 µM
inhibition of growth at 10 µM [13]: 53.1%
GI50 [14]: 3.81 µM
TGI [14]: 14.3 µM
CC50 [14]: 47.6 µM
GI50 [15]: 7.7 µM
LC50 (50% lethal concentration) [15]: > 100 µM
TGI [15]: > 100 µM
MBC [16]: 100 µg/mL (≈ 279 µM)
MIC [16]: 100 µg/mL (≈ 279 µM)
inhibition of growth at 10 µM [17]: 67.4%
GI50 [18]: 92.8 µM
TGI [18]: > 100 µM
CC50 [18]: > 100 µM
GI50 [19]: 2.26 µM
TGI [19]: 7.94 µM
CC50 [19]: > 100 µM
inhibition of growth at 10 µM [20]: 84.5%
inhibition of growth at 10 µM [21]: 33.3%
GI50 [22]: 2.71 µM
LC50 [22]: 56.1 µM
TGI [22]: 7.92 µM
inhibition of growth at 10 µM [23]: 67.9%
GI50 [24]: > 100 µM
TGI [24]: > 100 µM
CC50 [24]: > 100 µM
GI50 [25]: 11.4 µM
TGI [25]: 36.9 µM
CC50 ([25]; read-out: LC50 (the source's name)): > 100 µM
GI50 [26]: 11.8 µM
TGI [26]: 60.5 µM
CC50 [26]: > 100 µM
MBC [27]: 50 µg/mL (≈ 140 µM)
MIC [27]: 50 µg/mL (≈ 140 µM)

COc1ccc(OC)c(/C=C/C(=O)N/N=C/c2ccccc2)c1
GI50 [1]: 2.99 µM
TGI [1]: 9.96 µM
CC50 [1]: > 100 µM
GI50 [2]: 7.56 µM
TGI [2]: > 100 µM
CC50 [2]: > 100 µM
GI50 [3]: 4.8 µM
TGI [3]: 35.1 µM
CC50 [3]: > 100 µM
GI50 [4]: 1.96 µM
TGI [4]: 6.47 µM
CC50 [4]: 61.6 µM
GI50 [5]: 3.15 µM
LC50 [5]: > 100 µM
TGI [5]: > 100 µM
inhibition of growth at 10 µM [6]: 47.9%
GI50 [7]: 2.03 µM
TGI [7]: 13.7 µM
CC50 [7]: > 100 µM
MBC [8]: 100 µg/mL (≈ 322 µM)
MIC [8]: 50 µg/mL (≈ 161 µM)
inhibition of growth at 10 µM [9]: 51.6%
inhibition of growth at 10 µM [28]: 69%
GI50 [10]: 9.07 µM
TGI [10]: > 100 µM
CC50 [10]: > 100 µM
inhibition of growth at 10 µM [11]: 54.6%
GI50 [12]: 16.6 µM
TGI [12]: > 100 µM
CC50 [12]: > 100 µM
inhibition of growth at 10 µM [29]: 44.8%
inhibition of growth at 10 µM [30]: 82.7%
inhibition of growth at 10 µM [13]: 51.5%
GI50 [14]: 3.68 µM
TGI [14]: > 100 µM
CC50 [14]: > 100 µM
GI50 [15]: 1.51 µM
LC50 (50% lethal concentration) [15]: > 100 µM
TGI [15]: > 100 µM
MBC [16]: 100 µg/mL (≈ 322 µM)
MIC [16]: 50 µg/mL (≈ 161 µM)
inhibition of growth at 10 µM [17]: 37.2%
inhibition of growth at 10 µM [31]: 72.2%
GI50 [18]: 0.488 µM
TGI [18]: > 100 µM
CC50 [18]: > 100 µM
inhibition of growth at 10 µM [32]: 108%
GI50 [19]: 4.39 µM
TGI [19]: 37.3 µM
CC50 [19]: > 100 µM
inhibition of growth at 10 µM [20]: 86.5%
inhibition of growth at 10 µM [21]: 71.3%
inhibition of growth at 10 µM [33]: 36.5%
inhibition of growth at 10 µM [34]: 79.3%
GI50 [22]: 3.9 µM
LC50 [22]: > 100 µM
TGI [22]: 26.6 µM
inhibition of growth at 10 µM [23]: 94%
GI50 [24]: 3.97 µM
TGI [24]: > 100 µM
CC50 [24]: > 100 µM
GI50 [26]: 4.42 µM
TGI [26]: 25.1 µM
CC50 [26]: > 100 µM
MBC [27]: 50 µg/mL (≈ 161 µM)
MIC [27]: 50 µg/mL (≈ 161 µM)
